Data: patent US20150322083A1, “(THIENO[2,3-b][1,5]BENZOXAZEPIN-4-YL)PIPERAZIN-1-YL COMPOUNDS AS SELECTIVE 5-HT2A INVERSE AGONISTS” (Eli Lilly and Company, priority 2014, published 2015)
Structures can show the parent of a compound that is named as a salt.

Legend:
Dopamine D3 = Dopamine D3 (Homo sapiens, UniProt P35462); experiment: Dopamine D3 binding
Procedure: (§1) Curves are evaluated using a 4-parameter logistic nonlinear equation to obtain the concentration of competitor causing 50% inhibition of radioligand binding (IC50). Equilibrium dissociation constants (Ki) are calculated according to the equation Ki=IC50/(1+L/Kd), where L equals the concentration of radioligand used in the experiment and Kd equals the equilibrium dissociation constant of the radioligand for the receptor, determined from standard saturation analysis or homologous competition experiments. Reported values for Ki, where n values are indicated, are shown as geometric mean±the standard error of the mean (SEM), with the number of replicate determinations indicated by n. Geometric means are calculated by the equation GeoMean=10̂(Average(log Ki 1+log Ki 2+ . . . log Ki n)/[…]).
(§2) Further, the compounds of the invention may be tested in binding assays and functional activity assays by well known methods for other physiologically important receptors such as, but not limited to, the hERG channel, other serotonin receptors (specifically 5-HT1B receptors, lack of agonist activity at 5-HT2B receptors, 5-HT2C, 5-HT5, 5-HT6, and 5-HT7 receptors), dopaminergic receptors (specifically D1, D2, and D3), H1 receptors, GABAA receptors, adrenergic receptors and monoamine transporters.

Adrenergic alpha2C = Adrenergic alpha2C (Homo sapiens, UniProt P18825); experiment: Adrenergic alpha2C binding
Sequence of Adrenergic alpha2C (P18825 whole entry): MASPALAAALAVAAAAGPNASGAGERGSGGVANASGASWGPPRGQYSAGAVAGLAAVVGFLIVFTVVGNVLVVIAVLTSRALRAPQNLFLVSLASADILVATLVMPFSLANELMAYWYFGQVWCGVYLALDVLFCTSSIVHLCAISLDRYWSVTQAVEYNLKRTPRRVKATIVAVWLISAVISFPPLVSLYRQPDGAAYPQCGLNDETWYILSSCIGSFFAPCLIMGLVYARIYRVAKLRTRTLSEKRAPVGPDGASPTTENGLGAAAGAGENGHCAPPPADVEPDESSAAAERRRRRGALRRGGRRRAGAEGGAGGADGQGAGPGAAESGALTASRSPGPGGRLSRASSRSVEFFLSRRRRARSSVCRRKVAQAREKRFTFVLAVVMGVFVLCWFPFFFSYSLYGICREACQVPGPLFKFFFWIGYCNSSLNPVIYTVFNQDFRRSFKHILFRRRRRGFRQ
Procedure: as §1, §2

5-HT2B = 5-HT2B (Homo sapiens, UniProt P41595); experiment: 5-HT2B binding (selectivity data)
Procedure: as §1, §2

Adrenergic alpha1B = Adrenergic alpha1B (Homo sapiens, UniProt P35368); experiment: Adrenergic alpha1B binding
Sequence of Adrenergic alpha1B (P35368 whole entry): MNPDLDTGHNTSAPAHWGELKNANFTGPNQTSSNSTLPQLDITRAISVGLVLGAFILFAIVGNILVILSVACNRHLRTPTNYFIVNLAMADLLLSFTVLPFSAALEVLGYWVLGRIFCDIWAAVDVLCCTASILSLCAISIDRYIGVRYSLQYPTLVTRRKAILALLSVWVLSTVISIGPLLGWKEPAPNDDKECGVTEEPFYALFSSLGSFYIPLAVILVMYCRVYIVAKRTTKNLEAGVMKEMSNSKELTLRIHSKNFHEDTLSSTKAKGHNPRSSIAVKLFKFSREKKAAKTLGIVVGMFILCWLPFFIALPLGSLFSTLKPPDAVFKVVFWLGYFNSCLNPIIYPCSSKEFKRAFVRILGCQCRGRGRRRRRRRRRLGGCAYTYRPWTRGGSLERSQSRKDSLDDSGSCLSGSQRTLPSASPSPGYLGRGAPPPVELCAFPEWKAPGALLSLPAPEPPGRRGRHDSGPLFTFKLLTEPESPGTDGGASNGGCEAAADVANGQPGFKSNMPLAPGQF
Procedure: as §1, §2

Dopamine Transporter = Dopamine Transporter (Homo sapiens, UniProt Q01959); experiment: Dopamine transporter binding
Procedure: as §1, §2

H1 receptors = H1 receptors (Homo sapiens, UniProt P35367); experiment: H1 receptor binding
Procedure: as §1, §2

Dopamine D2 = Dopamine D2 (Homo sapiens, UniProt P14416); experiment: Dopamine D2 binding
Sequence of Dopamine D2 (P14416 whole entry): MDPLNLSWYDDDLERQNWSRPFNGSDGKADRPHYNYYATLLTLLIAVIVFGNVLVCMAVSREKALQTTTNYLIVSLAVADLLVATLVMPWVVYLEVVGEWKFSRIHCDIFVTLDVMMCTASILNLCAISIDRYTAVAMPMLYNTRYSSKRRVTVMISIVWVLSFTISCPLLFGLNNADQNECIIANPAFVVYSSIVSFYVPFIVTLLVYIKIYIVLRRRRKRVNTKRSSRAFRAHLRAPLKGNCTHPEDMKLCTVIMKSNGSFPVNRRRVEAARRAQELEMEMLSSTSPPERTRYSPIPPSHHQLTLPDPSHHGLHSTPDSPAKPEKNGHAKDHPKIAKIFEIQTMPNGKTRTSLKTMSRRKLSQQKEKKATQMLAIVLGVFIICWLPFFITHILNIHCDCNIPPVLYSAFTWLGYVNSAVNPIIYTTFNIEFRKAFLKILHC
Procedure: as §1, §2

Norepinephrine Transport = Norepinephrine Transport (Homo sapiens, UniProt P23975); experiment: Norepinephrine transporter binding
Sequence of Norepinephrine Transport (P23975 whole entry): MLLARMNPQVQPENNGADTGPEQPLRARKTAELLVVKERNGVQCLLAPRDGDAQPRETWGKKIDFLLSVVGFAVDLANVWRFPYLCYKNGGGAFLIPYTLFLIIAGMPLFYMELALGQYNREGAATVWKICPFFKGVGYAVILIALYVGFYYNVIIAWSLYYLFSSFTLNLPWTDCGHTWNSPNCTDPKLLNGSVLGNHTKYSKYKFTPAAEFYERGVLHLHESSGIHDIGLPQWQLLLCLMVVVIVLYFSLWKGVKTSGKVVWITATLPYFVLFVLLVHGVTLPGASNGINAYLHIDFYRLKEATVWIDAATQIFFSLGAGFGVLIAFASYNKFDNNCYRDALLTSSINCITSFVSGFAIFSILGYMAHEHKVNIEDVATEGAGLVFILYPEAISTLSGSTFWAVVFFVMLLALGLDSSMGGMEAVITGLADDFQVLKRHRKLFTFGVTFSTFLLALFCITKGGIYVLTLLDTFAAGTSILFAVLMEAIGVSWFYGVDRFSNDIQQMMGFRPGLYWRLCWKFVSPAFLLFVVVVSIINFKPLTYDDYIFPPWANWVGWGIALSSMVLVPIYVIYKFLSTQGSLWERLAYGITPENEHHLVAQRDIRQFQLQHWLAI
Procedure: as §1, §2

[1] = target: recombinant human 5-HT2A receptor (Homo sapiens, UniProt P28223); experiment: 5-HT2A competition binding assay ([3H]-Ketanserin, SPA); set-up: expressed in transfected cells
Sequence of recombinant human 5-HT2A receptor (P28223 whole entry): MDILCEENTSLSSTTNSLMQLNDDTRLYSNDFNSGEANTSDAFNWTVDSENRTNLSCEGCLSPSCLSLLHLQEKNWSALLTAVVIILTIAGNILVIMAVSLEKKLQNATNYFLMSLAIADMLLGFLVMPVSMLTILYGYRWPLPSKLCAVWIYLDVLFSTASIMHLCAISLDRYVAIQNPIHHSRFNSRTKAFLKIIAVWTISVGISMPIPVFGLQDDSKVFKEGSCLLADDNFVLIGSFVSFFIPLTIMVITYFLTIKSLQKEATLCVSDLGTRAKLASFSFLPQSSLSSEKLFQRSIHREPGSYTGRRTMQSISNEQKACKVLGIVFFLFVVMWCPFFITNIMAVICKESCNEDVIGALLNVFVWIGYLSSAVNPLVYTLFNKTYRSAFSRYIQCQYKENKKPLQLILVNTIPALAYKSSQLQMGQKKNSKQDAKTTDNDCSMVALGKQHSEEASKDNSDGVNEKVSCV
Procedure: [^3H]-Ketanserin binding experiments are carried out in SPA 96-well format. Membranes used in this assay are prepared from AV-12 cells stably expressing recombinant 5-HT2A receptors (human). The incubation is initiated by the addition of a mixture of WGA YSi SPA beads (1 mg/well, Perkin Elmer (MA, USA), Product No. RPNQ0011) and 2 μg membranes to assay buffer (67 mM Tris, 0.5 mM EDTA; pH 7.6) containing 3.1 nM [^3H]-Ketanserin and varying concentrations of the test compound (10 point concentration response curves). Non-specific binding is determined in the presence of 20 μM 1-(1-naphthyl)piperazine. Samples are incubated for 4 hr. at room temperature (22° C.) and then read in a microplate scintillation counter.
(§3) Curves are evaluated using a 4-parameter logistic nonlinear equation to obtain the concentration of competitor causing 50% inhibition of radioligand binding (IC50). Equilibrium dissociation constants (Ki) are calculated according to the equation Ki=IC50/(1+L/Kd), where L equals the concentration of radioligand used in the experiment and Kd equals the equilibrium dissociation constant of the radioligand for the receptor, determined from standard saturation analysis or homologous competition experiments. […]

Serotonin Transporter = Serotonin Transporter (Homo sapiens, UniProt P31645); experiment: Serotonin transporter binding
Sequence of Serotonin Transporter (P31645 whole entry): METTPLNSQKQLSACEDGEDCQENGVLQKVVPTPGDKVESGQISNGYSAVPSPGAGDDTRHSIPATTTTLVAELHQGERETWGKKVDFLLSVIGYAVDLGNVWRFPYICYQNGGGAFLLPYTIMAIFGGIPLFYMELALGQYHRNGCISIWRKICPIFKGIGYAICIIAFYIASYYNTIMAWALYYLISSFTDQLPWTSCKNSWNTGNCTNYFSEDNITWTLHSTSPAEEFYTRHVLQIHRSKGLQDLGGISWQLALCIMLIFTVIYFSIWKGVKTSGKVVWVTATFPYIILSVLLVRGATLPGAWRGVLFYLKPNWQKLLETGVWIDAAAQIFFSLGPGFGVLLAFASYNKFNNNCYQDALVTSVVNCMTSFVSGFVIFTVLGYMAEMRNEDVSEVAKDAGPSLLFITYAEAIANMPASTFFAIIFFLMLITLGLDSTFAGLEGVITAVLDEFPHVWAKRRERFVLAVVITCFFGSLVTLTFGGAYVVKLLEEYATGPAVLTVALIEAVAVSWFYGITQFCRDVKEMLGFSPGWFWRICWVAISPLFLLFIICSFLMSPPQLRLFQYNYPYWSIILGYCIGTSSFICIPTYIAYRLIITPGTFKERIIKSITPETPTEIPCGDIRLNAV
Procedure: as §1, §2

Adrenergic alpha1A = Adrenergic alpha1A (Homo sapiens, UniProt P35348); experiment: Adrenergic alpha1A binding
Sequence of Adrenergic alpha1A (P35348 whole entry): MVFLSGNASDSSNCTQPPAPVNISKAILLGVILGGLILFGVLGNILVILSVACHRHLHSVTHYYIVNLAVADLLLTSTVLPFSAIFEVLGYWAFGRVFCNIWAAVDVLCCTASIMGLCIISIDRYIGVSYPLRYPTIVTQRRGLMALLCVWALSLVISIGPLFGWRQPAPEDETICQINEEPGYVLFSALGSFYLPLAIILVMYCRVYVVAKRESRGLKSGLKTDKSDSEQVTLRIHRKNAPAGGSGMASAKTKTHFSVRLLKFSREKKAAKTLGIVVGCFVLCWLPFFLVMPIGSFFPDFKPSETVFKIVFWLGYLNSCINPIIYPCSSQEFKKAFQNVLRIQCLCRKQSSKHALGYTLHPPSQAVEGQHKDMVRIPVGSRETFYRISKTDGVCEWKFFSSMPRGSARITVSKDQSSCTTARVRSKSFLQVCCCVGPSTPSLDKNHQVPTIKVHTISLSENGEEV
Procedure: as §1, §2

Dopamine D1 = Dopamine D1 (Homo sapiens, UniProt P21728); experiment: Dopamine D1 binding
Sequence of Dopamine D1 (P21728 whole entry): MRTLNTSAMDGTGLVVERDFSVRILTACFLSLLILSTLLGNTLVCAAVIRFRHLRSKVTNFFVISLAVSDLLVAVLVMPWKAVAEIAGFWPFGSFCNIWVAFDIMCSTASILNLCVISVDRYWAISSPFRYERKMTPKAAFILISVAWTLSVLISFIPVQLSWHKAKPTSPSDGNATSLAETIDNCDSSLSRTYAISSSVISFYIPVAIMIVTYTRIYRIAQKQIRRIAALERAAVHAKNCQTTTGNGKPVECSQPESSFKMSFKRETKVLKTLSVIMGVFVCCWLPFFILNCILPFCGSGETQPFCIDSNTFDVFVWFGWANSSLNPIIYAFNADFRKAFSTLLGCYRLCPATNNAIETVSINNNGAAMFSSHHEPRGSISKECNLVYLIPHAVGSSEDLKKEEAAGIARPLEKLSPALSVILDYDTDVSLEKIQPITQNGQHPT
Procedure: as §1, §2

native GABAA receptors = experiment: GABAA antagonism using native receptors in primary neuronal cultures (FLIPR calcium flux); format: cell-based; conditions: against 10 μM GABA, rat cortical embryonic neurons
Procedure: Activity of compounds on native GABAA receptors is evaluated by monitoring calcium fluxes using a 96 well format FLIPR® system (Fluorometric Imaging Plate Reader (FLIPR®, Molecular Devices). Briefly, cortical embryonic neurons are dissociated from E18 rat embryos and plated at optimum density into black-walled, transparent bottom poly-D-lysine coated 96-well FLIPR® plates. After loading the cells with a calcium sensitive dye (Fluo4-AM, Molecular Devices), the cells are bathed in a solution containing low chloride (chloride replaced by gluconate). Under these conditions activation of GABAA receptors causes an efflux of chloride ions (in the direction of the chemical gradient), which results in membrane depolarization and consequently activation of voltage gated calcium channels (VGCCs). Calcium influx through VGCCs is recorded and analysed offline using the FLIPR® system. For a pharmacological validation of the assay, concentration response curves (CRC) are recorded for the standard agonist (GABA) and standard antagonist (Gabazine). […]
The antagonist effects of compounds are quantified using 10-point dose response curves by comparing the peak fluorescent responses to the agonist GABA in the presence and absence of compound. […] Antagonist effects are calculated as a percent of the assay window. […]

Adrenergic alpha2A = Adrenergic alpha2A (Homo sapiens, UniProt P08913); experiment: Adrenergic alpha2A binding
Sequence of Adrenergic alpha2A (P08913 whole entry): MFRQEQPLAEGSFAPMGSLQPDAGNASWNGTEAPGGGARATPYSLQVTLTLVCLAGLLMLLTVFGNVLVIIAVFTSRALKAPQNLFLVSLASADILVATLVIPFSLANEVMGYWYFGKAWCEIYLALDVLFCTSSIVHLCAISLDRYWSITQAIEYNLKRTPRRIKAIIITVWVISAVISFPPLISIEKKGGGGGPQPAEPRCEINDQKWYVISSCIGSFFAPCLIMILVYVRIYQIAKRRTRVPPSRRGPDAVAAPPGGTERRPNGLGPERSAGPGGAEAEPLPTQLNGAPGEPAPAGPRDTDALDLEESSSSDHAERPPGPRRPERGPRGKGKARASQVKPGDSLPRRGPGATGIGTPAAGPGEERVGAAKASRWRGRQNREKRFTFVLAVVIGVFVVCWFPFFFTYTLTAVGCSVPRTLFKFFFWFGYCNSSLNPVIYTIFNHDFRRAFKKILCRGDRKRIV
Procedure: as §1, §2

[2] = target: T1, recombinant 5-HT2C receptors (human) (Homo sapiens, UniProt P28335); experiment: 5-HT2C competition binding assay ([125I]-(±)DOI, SPA)
T1 construct: expressed in transfected cells
Procedure: [^125I]-(±)DOI binding experiments are carried out in SPA 96-well format. Membranes used in this assay are prepared from AV-12 cells stably expressing recombinant 5-HT2C receptors (human). The incubation is initiated by the addition of a mixture of WGA PVT SPA beads (0.5 mg/well, Perkin Elmer (MA, USA), RPNQ0001) and 2.5 μg membranes to assay buffer (50 mM Tris-HCl, 10 mM MgCl2, 0.5 mM EDTA, 10 μM pargyline, 0.1% ascorbic acid, pH7.4) containing 0.2 nM [[^125I]-(±)DOI and varying concentrations of the test compound (10 point concentration response curves). Non-specific binding is determined in the presence of 20 μM 1-(1-naphthyl)piperazine. Samples are incubated for 4 hr. at room temperature (22° C.) and then read in a microplate scintillation counter.
as §3

Sequence of Dopamine D3 (P35462 whole entry): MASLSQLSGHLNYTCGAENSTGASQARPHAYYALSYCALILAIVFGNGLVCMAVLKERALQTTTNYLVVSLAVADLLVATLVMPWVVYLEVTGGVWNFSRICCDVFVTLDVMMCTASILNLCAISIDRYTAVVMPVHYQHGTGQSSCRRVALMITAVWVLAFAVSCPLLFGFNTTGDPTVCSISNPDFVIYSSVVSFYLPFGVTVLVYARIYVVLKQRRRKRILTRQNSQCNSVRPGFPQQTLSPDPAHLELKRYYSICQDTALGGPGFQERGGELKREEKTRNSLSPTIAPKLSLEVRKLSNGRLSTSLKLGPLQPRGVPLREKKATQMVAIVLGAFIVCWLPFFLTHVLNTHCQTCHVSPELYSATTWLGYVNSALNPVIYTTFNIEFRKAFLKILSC

In the case of `Cc1ccc2c(c1)Oc1sc(SC(C)C)cc1C(N1CCN(CC(C)(C)C(=O)O)CC1)=N2` [Example 2, 3-[4-(2-Isopropylsulfanyl-8-methyl-thieno[2,3-b][1,5]benzoxazepin-4-yl)piperazin-1-yl]-2,2-dimethyl-propanoic acid dihydrochloric acid salt], the Ki (Dopamine D3) is reported as over 5880 nM, the Ki (Adrenergic alpha2C) is reported as over 6750 nM and the Ki (5-HT2B) is reported as 767 nM. The Ki (Adrenergic alpha1B) was 10400 nM, the Ki (Dopamine Transporter) was over 875 nM and the Ki (H1 receptors) was 893 nM. It also gave a Ki (Dopamine D2) of over 3670 nM, a Ki (Norepinephrine Transport) of over 691 nM and a Ki [1] of 6.2 nM. For the same compound, the Ki (Serotonin Transporter) was over 651 nM, the Ki (Adrenergic alpha1A) was over 13400 nM and the Ki (Dopamine D1) was 3760 nM. It also gave an IC50 (native GABAA receptors) of 41000 nM, a Ki (Adrenergic alpha2A) of over 8820 nM and a Ki [2] of 772 nM.
